According to patent publication EP0377044B1, “PROTECTIVE AGENT FOR RADIATION HAZARD” (MITSUI TOATSU CHEMICALS, Inc., priority 1988, dated 1989):
Square brackets hold non-standard residues; d marks the D form. Peptide text beside a SMILES is read from it. pGlu = O=C1CC[C@@H](C(=O)O)N1

How the values were obtained:
[1] = test system: mice irradiated with 600R X-rays; assay: Survival of mice after whole body irradiation with 600R X-rays; format: in vivo
Protocol: (§1) Male, 10 week-old C3H/He mice were used and groups of 10 - 15 animals each were prepared.
(§2) The mice were subjected to whole body irradiation for 8 minutes using a X-radiation unit (manufactured by Shimazu Seisaku-sho, Shin-Ai 250 II). These animals received, once per day, subcutaneous administration of 100 µg of FTS·CH₃COOH·2H₂O as used in Example 1 for consecutive 14 days. For a pre-administered group, the administration started two days before the irradiation. For a post-administered group, the first administration was effected immediately after the irradiation. As control groups, one group which received only once subcutaneous administration of 1 KE of Picibanil immediately after the irradiation and another group which received every day administration of physiological saline were prepared.
In the same manner as in Experimental Examples 1 and 2, mice were irradiated with X-rays for 6 minutes. For a period of consecutive 14 days from 2 days before irradiation, the animals were subcutaneously administered, once a day, with 100 µg/day of FTS·CH₃COOH·2H₂O as medicament.

[2] = test system: mice irradiated with 900R X-rays; assay: Survival of mice after whole body irradiation with 900R X-rays; format: in vivo
Protocol: as §1, §2
In the same manner as in Experimental Example 1, mice were subcutaneously administered, after X-radiation for 9 minutes, with 100 µg/day of FTS·CH₃COOH·2H₂O, once a day and twelve times in all, i.e. on the zero, 1st, 2nd, 3rd, 4th, 5th, 7th, 8th, 9th, 10th, 11th and 12th days.

cancer-carrying mice = assay: Radiotherapeutic experiments on cancer-carrying mice; format: in vivo; conditions: pre- or post-irradiation administration
Wister rats = assay: Toxicity test, repeated subcutaneous administration to rats; format: in vivo
From the text: Thus, the medicament of the present invention is a safe medicament of extremely low toxicity and can be administered for a long period of time.

[3] = test system: mice irradiated with 800R X-rays; assay: Survival of mice after whole body irradiation with 800R X-rays; format: in vivo, C3H/He mice
Protocol: as §1, §2

SMILES: C[C@H](NC(=O)[C@@H]1CCC(=O)N1)C(=O)N[C@@H](CCCCN)C(=O)N[C@@H](CO)C(=O)N[C@@H](CCC(N)=O)C(=O)NCC(=O)NCC(=O)N[C@@H](CO)C(=O)N[C@@H](CC(N)=O)C(=O)O [medicament, pGlu-Ala-Lys-Ser-Gln-Gly-Gly-Ser-Asn] ([pGlu]AKSQGGSN-OH)
- animals survived ([1]; in 19 days, 100 µg/day s.c. 14 days from 2 days before irradiation, control four out of ten): ten out of ten
- The number of days and survivals after X-radiation 8 (days) ([1]; pre-administration 100 µg/day s.c., 14 days from 2 days before irradiation, day 8, 10 animals used): 10
- The number of days and survivals after X-radiation 9 (days) ([1]; pre-administration 100 µg/day s.c., 14 days from 2 days before irradiation, day 9, 10 animals used): 10
- The number of days and survivals after X-radiation 10 (days) ([1]; pre-administration 100 µg/day s.c., 14 days from 2 days before irradiation, day 10, 10 animals used): 10
- The number of days and survivals after X-radiation 11 (days) ([1]; pre-administration 100 µg/day s.c., 14 days from 2 days before irradiation, day 11, 10 animals used): 10
- The number of days and survivals after X-radiation 12 (days) ([1]; pre-administration 100 µg/day s.c., 14 days from 2 days before irradiation, day 12, 10 animals used): 10
- The number of days and survivals after X-radiation 13 (days) ([1]; pre-administration 100 µg/day s.c., 14 days from 2 days before irradiation, day 13, 10 animals used): 10
- The number of days and survivals after X-radiation 14 (days) ([1]; pre-administration 100 µg/day s.c., 14 days from 2 days before irradiation, day 14, 10 animals used): 10
- The number of days and survivals after X-radiation 15 (days) ([1]; pre-administration 100 µg/day s.c., 14 days from 2 days before irradiation, day 15, 10 animals used): 10
- The number of days and survivals after X-radiation 16 (days) ([1]; pre-administration 100 µg/day s.c., 14 days from 2 days before irradiation, day 16, 10 animals used): 10
- The number of days and survivals after X-radiation 17 (days) ([1]; pre-administration 100 µg/day s.c., 14 days from 2 days before irradiation, day 17, 10 animals used): 10
- The number of days and survivals after X-radiation 18 (days) ([1]; pre-administration 100 µg/day s.c., 14 days from 2 days before irradiation, day 18, 10 animals used): 10
- The number of days and survivals after X-radiation 19 (days) ([1]; pre-administration 100 µg/day s.c., 14 days from 2 days before irradiation, day 19, 10 animals used): 10
- The number of days and survivals after X-radiation 30 (days) ([1]; pre-administration 100 µg/day s.c., 14 days from 2 days before irradiation, day 30, 10 animals used): 10
- The number of days and survivals after X-radiation 9 (days) ([2]; 900R X-rays, post-administration 100 µg/day s.c., twelve times in all (days 0-5, 7-12), day 9, 15 animals used): 15
- The number of days and survivals after X-radiation 10 (days) ([2]; 900R X-rays, post-administration 100 µg/day s.c., twelve times in all (days 0-5, 7-12), day 10, 15 animals used): 13
- The number of days and survivals after X-radiation 11 (days) ([2]; 900R X-rays, post-administration 100 µg/day s.c., twelve times in all (days 0-5, 7-12), day 11, 15 animals used): 12
- The number of days and survivals after X-radiation 12 (days) ([2]; 900R X-rays, post-administration 100 µg/day s.c., twelve times in all (days 0-5, 7-12), day 12, 15 animals used): 12
- The number of days and survivals after X-radiation 13 (days) ([2]; 900R X-rays, post-administration 100 µg/day s.c., twelve times in all (days 0-5, 7-12), day 13, 15 animals used): 7
- The number of days and survivals after X-radiation 14 (days) ([2]; 900R X-rays, post-administration 100 µg/day s.c., twelve times in all (days 0-5, 7-12), day 14, 15 animals used): 4
- The number of days and survivals after X-radiation 15 (days) ([2]; 900R X-rays, post-administration 100 µg/day s.c., twelve times in all (days 0-5, 7-12), day 15, 15 animals used): 3
- The number of days and survivals after X-radiation 16 (days) ([2]; 900R X-rays, post-administration 100 µg/day s.c., twelve times in all (days 0-5, 7-12), day 16, 15 animals used): 2
- The number of days and survivals after X-radiation 18 (days) ([2]; 900R X-rays, post-administration 100 µg/day s.c., twelve times in all (days 0-5, 7-12), day 18, 15 animals used): 2
- The number of days and survivals after X-radiation 20 (days) ([2]; 900R X-rays, post-administration 100 µg/day s.c., twelve times in all (days 0-5, 7-12), day 20, 15 animals used): 2
- The number of days and survivals after X-radiation 21 (days) ([2]; 900R X-rays, post-administration 100 µg/day s.c., twelve times in all (days 0-5, 7-12), day 21, 15 animals used): 1
- The number of days and survivals after X-radiation 23 (days) ([2]; 900R X-rays, post-administration 100 µg/day s.c., twelve times in all (days 0-5, 7-12), day 23, 15 animals used): 0
- life span extension ([2]; 900R, 100 µg/day s.c. twelve times after X-radiation, summary of Table 2): exhibited a life span extension
- anti-cancer effect of radiotherapy (cancer-carrying mice): potentiated
- toxicity (external behavior observation, biochemical diagnosis of sera, pathological anatomy) (Wister rats; 30 mg/kg subcutaneously every day for consecutive 21 days, rats): no abnormal symptom was found in external behavior observation and biochemical diagnosis of sera and in a result of pathological anatomy
- toxicity (Wister rats; 30 mg/kg subcutaneously for consecutive 21 days, ten Wister rats of 5 weeks old): No toxicity was observed
- dying of mice due to irradiation ([3]; 100 µg s.c. once per day for 14 days, summary of Table 1): clearly prevents or inhibits the dying of mice due to irradiation
- The number of days and survivals after X-radiation 10 (days) ([3]; post-administration 100 µg s.c. once per day, 14 days, from immediately after irradiation, day 10, 15 animals used): 15
- The number of days and survivals after X-radiation 11 (days) ([3]; post-administration 100 µg s.c. once per day, 14 days, from immediately after irradiation, day 11, 15 animals used): 15
- The number of days and survivals after X-radiation 12 (days) ([3]; post-administration 100 µg s.c. once per day, 14 days, from immediately after irradiation, day 12, 15 animals used): 15
- The number of days and survivals after X-radiation 13 (days) ([3]; post-administration 100 µg s.c. once per day, 14 days, from immediately after irradiation, day 13, 15 animals used): 14
- The number of days and survivals after X-radiation 14 (days) ([3]; post-administration 100 µg s.c. once per day, 14 days, from immediately after irradiation, day 14, 15 animals used): 13
